According to US20080194585A1, “Fungicidal Pyrazine Derivatives” (priority 2005, published 2008):
Marks after values point to notes of the source that are not given here.

Tests used:
Botrytis cinerea = experiment: Test E: tomato botrytis, preventive spray on tomato seedlings; settings: 40 ppm (*)
Septoria tritici = experiment: Test J: wheat leaf blotch, preventive spray on wheat seedlings; format: in vivo; settings: 40 ppm (*)
Source text: A dash (-) indicates no test results.

Rhizoctonia oryzae = experiment: Test G: turf brown patch, preventive spray on creeping bent grass seedlings; settings: 40 ppm (*)
Protocol: (the causal agent of turf brown patch) and incubated in a saturated atmosphere at 27° C. for 24 h, and then moved to a growth chamber at 27° C. for 5 days, after which disease ratings were made.

fusarium graminearium = experiment: Test I: wheat head scab, preventive spray on wheat seedlings
Protocol: (the causal agent of wheat head scab) and incubated in a saturated atmosphere at 20° C. for 72 h, and then moved to a growth chamber at 22° C. for 5 days, after which disease ratings were made.

Plasmopara viticola = experiment: Test D: grape downy mildew, spray after inoculation of grape seedlings; format: in vivo
Source text: Upon removal, disease ratings were made. […] A dash (-) indicates no test results.

Septoria nodorum = experiment: Test H: wheat glum blotch, preventive spray on wheat seedlings; settings: 40 ppm (*)
Protocol: (the causal agent of wheat glum blotch) and incubated in a saturated atmosphere at 20° C. for 48 h, and then moved to a growth chamber at 22° C. for 5 days, after which disease ratings were made.

Phytophthora infestans = experiment: whole plant or invertebrate; format: in vivo
[1] = test system: Puccinia recondita f. sp. tritici; experiment: Test K: wheat leaf rust, preventive spray on wheat seedlings; settings: 40 ppm (*)
[2] = test system: Colletotrichum orbiculare; experiment: Test B: cucumber Colletotrichum anthracnose, preventive spray on cucumber seedlings
Pythium aphanidermatum = experiment: Test A: bluegrass pythium blight, preventive spray on bluegrass seedlings
[3] = test system: Erysiphe graminis f. sp. tritici; experiment: Test L: wheat powdery mildew, preventive spray on wheat seedlings; settings: 40 ppm (*)

Structure (SMILES) | Test E disease control rating (Botrytis cinerea) | Test J disease control rating (Septoria tritici) | Test G disease control rating (Rhizoctonia oryzae) | Test I disease control rating (fusarium graminearium; 200 ppm) | Test D disease control rating (Plasmopara viticola; 200 ppm) | Test H disease control rating (Septoria nodorum) | Test F disease control rating (Phytophthora infestans; 200 ppm) | Test K disease control rating [1] | Test B disease control rating ([2]; 40 ppm (*)) | Test A disease control rating (Pythium aphanidermatum; 200 ppm) | Test L disease control rating [3] | Test I disease control rating (fusarium graminearium; 40 ppm (*)) | Test D disease control rating (Plasmopara viticola; 40 ppm (*)) | Test F disease control rating (Phytophthora infestans; 40 ppm (*)) | Test A disease control rating (Pythium aphanidermatum; 40 ppm (*)) | Test B disease control rating ([2]; 200 ppm)
CC(C)Cn1c(-c2ccc(Cl)s2)c(Cl)nc(-n2cccn2)c1=O [compound 152] | 100* % | 91* % | 0* % | 0% | 16% | 0* % | 0% | 55* % | 0* % | 0% | 0* % |  |  |  |  | 
CC(C)Cn1c(-c2ccoc2)c(Cl)nc(-n2cccn2)c1=O [compound 153] | 79* % | 20* % | 0* % | 0% | 31% | 0* % | 0% | 0* % | 0* % | 0% | 0* % |  |  |  |  | 
CC(C)Cn1c(-c2ccsc2)c(Cl)nc(-n2cccn2)c1=O [compound 154] | 99* % | 45* % | 0* % | 0% | 50% | 0* % | 0% | 0* % | 0* % | 0% | 0* % |  |  |  |  | 
CC(C)Cn1c(-c2ccc(Cl)o2)c(Cl)nc(-n2cncn2)c1=O [compound 156] | 0* % | 14* % | 0* % | 0% | 0% | 0* % | 0% | 0* % | 0* % | 0% | 0* % |  |  |  |  | 
CC(C)Cn1c(-c2ccc(Cl)s2)c(Cl)nc(-n2cncn2)c1=O [compound 157] | 0* % | 47* % | 0* % | 49% | 0% | 0* % | 0% | 0* % | 0* % | 0% | 0* % |  |  |  |  | 
CC(C)Cn1c(-c2ccoc2)c(Cl)nc(-n2cncn2)c1=O [compound 158] | 0* % | 15* % | 0* % | 0% | 0% | 0* % | 0% | 0* % | 0* % | 0% | 0* % |  |  |  |  | 
CC(C)Cn1c(-c2ccsc2)c(Cl)nc(-n2cncn2)c1=O [compound 159] | 0* % | 69* % | 0* % | 0% | 0% | 0* % | 47% | 0* % | 0* % | 0% | 0* % |  |  |  |  | 
N#Cc1nc(Cl)c(-c2c(F)cccc2F)n(-c2ccccc2)c1=O [compound 163] | 0* % | 3* % | 0* % |  |  | 0* % |  | 0* % | 0* % |  | 0* % | 0* % | 0* % | 0* % | 0* % | 
CCC(C)Cn1c(-c2ccc(F)cc2Cl)c(Cl)nc(-n2cncn2)c1=O (stereo not drawn) [compound 165] | 100* % | 100* % | 16* % |  |  | 100* % |  | 100* % | 52* % |  | 100* % | 0* % | 31* % | 0* % | 0* % | 
CCC(C)Cn1c(-c2ccc(F)cc2Cl)c(Cl)nc(-n2cc(Cl)cn2)c1=O (stereo not drawn) [compound 166] | 100* % | 100* % | 26* % |  |  | 0* % |  | 86* % | 17* % |  | 0* % | 0* % | 0* % | 0* % | 0* % | 
CCC(C)Cn1c(-c2ccc(F)cc2Cl)c(Cl)nc(-n2ccc(C(F)(F)F)n2)c1=O (stereo not drawn) [compound 167] | 0* % | 93* % | 0* % |  |  | 0* % |  | 80* % | 0* % |  | 0* % | 0* % | 0* % | 0* % | 0* % | 
CCC(C)Cn1c(-c2ccc(F)cc2Cl)c(Cl)nc(-n2nc(C)cc2C)c1=O (stereo not drawn) [compound 168] | 0* % | 36* % | 0* % |  |  | 0* % |  | 0* % | 0* % |  | 0* % | 0* % | 0* % | 0* % | 0* % | 
CCC(C)Cn1c(-c2ccc(F)cc2Cl)c(Cl)nc(-n2cc(C)cn2)c1=O (stereo not drawn) [compound 169] | 99* % | 100* % | 0* % |  |  | 97* % |  | 92* % | 98* % |  | 75* % | 0* % | 0* % | 0* % | 0* % | 
CC(C)Cn1c(-c2c(F)c(F)c(F)c(F)c2F)c(Cl)nc(-n2cccn2)c1=O [compound 171] | 100* % | 52* % | 95* % |  |  | 82* % |  | 96* % |  |  | 99* % | 0* % | 0* % | 0* % | 0* % | 0%
CC(C)Cn1c(-c2c(F)cccc2F)c(Cl)nc(-c2cccnc2)c1=O [compound 178] | 0* % | 5* % | 0* % |  |  | 0* % |  | 0* % | 0* % |  | 0* % | 0* % | 0* % | 0* % | 0* % | 
CCCC(C)n1c(-c2c(F)cccc2F)c(Cl)nc(-n2cccn2)c1=O (stereo not drawn) [compound 180] | 99* % | 98* % | 94* % |  |  | 99* % |  | 100* % | 66* % |  | 95* % | 0* % | 0* % | 0* % | 0* % | 
CCC(CC)n1c(-c2c(F)cccc2F)c(Cl)nc(-n2cccn2)c1=O [compound 181] | 99* % | 100* % | 100* % |  |  | 99* % |  | 100* % | 51* % |  | 98* % | 0* % | 0* % | 0* % | 0* % | 
CCC(CC)Cn1c(-c2c(F)cccc2F)c(Cl)nc(-n2cccn2)c1=O [compound 183] | 100* % | 100* % | 81* % |  |  | 89* % |  | 99* % | 0* % |  | 92* % | 0* % | 0* % | 0* % | 0* % | 
